{
  "source": "ChEMBL document CHEMBL4351006",
  "about": "“A new exploration towards aminothiazolquinolone oximes as potentially multi-targeting antibacterial agents: Design, synthesis and evaluation acting on microbes, DNA, HSA and topoisomerase IV” (Eur J Med Chem, 2019)",
  "type_in_all_cases": "functional",
  "key": {"[1]": {"tested_on": "Klebsiella pneumoniae", "experiment": "Potentiation of cefixime-mediated antibacterial activity against Klebsiella pneumoniae assessed as cefixime MIC incubated for 24 hrs by two fold serial dilution method (reference value: 15.76 10^-3 mM)"}, "[2]": {"tested_on": "Candida albicans", "experiment": "Potentiation of fluconazole-mediated antifungal activity against Candida albicans assessed as fluconazole MIC incubated for 24 hrs by two fold serial dilution method (reference value: 13.06 10^-3 mM)"}, "[3]": {"tested_on": "Staphylococcus aureus", "experiment": "Potentiation of cefixime-mediated antibacterial activity against methicillin resistant Staphylococcus aureus N315 assessed as cefixime MIC incubated for 24 hrs by two fold serial dilution method (reference value: 31.52 10^-3 mM)", "settings": "N315, 24 h"}, "[4]": {"tested_on": "Staphylococcus aureus", "experiment": "Potentiation of cefixime-mediated antibacterial activity against Staphylococcus aureus assessed as cefixime MIC incubated for 24 hrs by two fold serial dilution method (reference value: 31.52 10^-3 mM)"}, "[5]": {"tested_on": "Candida tropicalis", "experiment": "Potentiation of fluconazole-mediated antifungal activity against Candida tropicalis assessed as fluconazole MIC incubated for 24 hrs by two fold serial dilution method (reference value: 26.12 10^-3 mM)"}},
  "data": [
    {"smiles": "C=CC1=C(C(=O)O)N2C(=O)[C@@H](NC(=O)/C(=N\\OCC(=O)O)c3csc(N)n3)[C@H]2SC1", "note": "[CEFIXIME]", "values": [
      {"measurement": "MIC", "setting": "[1]", "value": 7.88, "unit": "µM"},
      {"measurement": "MIC", "setting": "[2]", "value": 3.26, "unit": "µM"},
      {"measurement": "MIC", "setting": "[3]", "value": 3.94, "unit": "µM"},
      {"measurement": "MIC", "setting": "[4]", "value": 7.88, "unit": "µM"},
      {"measurement": "MIC", "setting": "[5]", "value": 26.1, "unit": "µM"}
    ]}
  ]
}
